Measured values published in US20230043863A1, “HETEROAROMATIC DERIVATIVES FOR USE AS REGULATOR, PREPARATION METHOD THEREFOR AND USE THEREOF” (JIANGSU HANSOH PHARMACEUTICAL GROUP CO., LTD., priority 2018, published 2023).
pIC50: −log10 of the molar value. Like-named read-outs stand apart in the source and are kept apart here.

What was measured:
[1] = biological target: JAK1 (Homo sapiens, UniProt P23458); assay: JAK kinase activity inhibition, TR-FRET (JAK1); type: biochemical; conditions: TR-FRET kinase assay
Outline: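 Enzymatic inhibition measured by time-resolved FRET using 0.1-20 nM kinase with peptide substrate and ATP, reacted 0.5-5 hours at room temperature. Percent inhibition was normalized to DMSO (no inhibitor) and kinase-free wells, and concentration-response data were fitted with a 4-parameter logistic model.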

[2] = Balb/C mouse pharmacokinetics (plasma, colon, ileum); type: in vivo; conditions: male, po, Balb/C mice, p.o. 5 mg/kg; for Cmax: read-out: Blood concentration Cmax; for AUC(0-t): read-out: Curve area AUC0-t; for MRT: read-out: Mean detention time MRT; for Tmax: read-out: Time to peak tmax; for AUC(0-inf): read-out: Curve area AUC0-∞; for half-life: read-out: Half life period t1/2 (converted)
From the text: Balb/C mouse was used as the test animal, the pharmacokinetic behavior in mice (plasma and colon, ileum tissue) was studied after oral administering the embodiment 1, embodiment 60, embodiment 169, embodiment 170, embodiment 171, embodiment 179, embodiment 191, embodiment 213, embodiment 214, embodiment 237, embodiment 238, embodiment 244, embodiment 246, embodiment 247, embodiment 257, embodiment 260, embodiment 262, embodiment 263, embodiment 267, embodiment 277, embodiment 278, embodiment 279, embodiment 288, embodiment 295, embodiment 299 and embodiment 301 at a dose of 5 mg/kg. After analyzing the drug concentration in the colon and ileum, the ratio of the drug concentration in the colon to that in ileum, and the ratio of the drug concentration in the colon to that in the plasma, the compounds with excellent PK were selected for further research.
12 Balb/C mice in each group, male, Shanghai Jiesjie Experimental Animal Co., Ltd., animal production license number (SCXK (Shanghai) 2013-0006 N0.311620400001794).
12 Balb/C mice in each group, male; p.o. after one night fast; the dose was 5 mg/kg; the administration volume was 10 mL/kg.
At 0, 0.5, 1, 2, 3, 5 and 7 hours before and after the administration, the mice were executed by CO2 and 0.2 mL of blood was collected from the heart, placed in an EDTA-K2 test tube, and centrifuged at 6000 rpm at 4° C. for 6 minutes to separate the plasma, which was then stored at −80° C. The ileum was taken close to the cecum end with a length of about 4-5 cm, and the colon was also taken close to the cecum end with a length of about 2-3 cm, weighed and placed in a 2 mL centrifuge tube, then stored at −80° C.
1) 40 uL of plasma sample was precipitated by adding 160 uL of acetonitrile, mixed and centrifuged at 3500×g for 5-20 minutes.
2) 30 μL of plasma and intestinal homogenate sample were precipitated by adding 90 of acetonitrile containing internal standard (100 ng/mL), mixed and centrifuged at 13000 rpm for 8 minutes.
3) 70 μL of the supernatant solution after treatment was collected and 70 μL of water was added thereto, vortexed and mixed for 10 minutes, and then 20 μL was collected to analyze the concentration of the test compound by LC/MS/MS. LC/MS/MS analysis instrument: AB Sciex API 4000 Qtrap.
Liquid phase conditions: Shimadzu LC-20AD Pump
Chromatographic column: Agilent ZORBAX XDB-C18 (50×2.1 mm, 3.5 μm) mobile phase: 0.1% formic acid aqueous solution as A solution, acetonitrile as B solution
Elution time: 0-4.0 minutes, the eluent is as follows:
The main pharmacokinetic parameters were calculated with WinNonlin 6.1, and the results of mouse pharmacokinetic experiments are shown in Table 3:
NA refers to none detected or not being tested (the detection limit of blood concentration was 1 ng/mL, when the Cmax in the blood test is NA, then NA in the blood test index refers to none detected; when the Cmax in the blood test is higher than the quantitative limit 1 ng/mL, then NA in the blood test index refers to not being tested; NA in the tissues (colon and ileum) refers to not being tested).

Sequence of JAK1 (P23458 whole entry): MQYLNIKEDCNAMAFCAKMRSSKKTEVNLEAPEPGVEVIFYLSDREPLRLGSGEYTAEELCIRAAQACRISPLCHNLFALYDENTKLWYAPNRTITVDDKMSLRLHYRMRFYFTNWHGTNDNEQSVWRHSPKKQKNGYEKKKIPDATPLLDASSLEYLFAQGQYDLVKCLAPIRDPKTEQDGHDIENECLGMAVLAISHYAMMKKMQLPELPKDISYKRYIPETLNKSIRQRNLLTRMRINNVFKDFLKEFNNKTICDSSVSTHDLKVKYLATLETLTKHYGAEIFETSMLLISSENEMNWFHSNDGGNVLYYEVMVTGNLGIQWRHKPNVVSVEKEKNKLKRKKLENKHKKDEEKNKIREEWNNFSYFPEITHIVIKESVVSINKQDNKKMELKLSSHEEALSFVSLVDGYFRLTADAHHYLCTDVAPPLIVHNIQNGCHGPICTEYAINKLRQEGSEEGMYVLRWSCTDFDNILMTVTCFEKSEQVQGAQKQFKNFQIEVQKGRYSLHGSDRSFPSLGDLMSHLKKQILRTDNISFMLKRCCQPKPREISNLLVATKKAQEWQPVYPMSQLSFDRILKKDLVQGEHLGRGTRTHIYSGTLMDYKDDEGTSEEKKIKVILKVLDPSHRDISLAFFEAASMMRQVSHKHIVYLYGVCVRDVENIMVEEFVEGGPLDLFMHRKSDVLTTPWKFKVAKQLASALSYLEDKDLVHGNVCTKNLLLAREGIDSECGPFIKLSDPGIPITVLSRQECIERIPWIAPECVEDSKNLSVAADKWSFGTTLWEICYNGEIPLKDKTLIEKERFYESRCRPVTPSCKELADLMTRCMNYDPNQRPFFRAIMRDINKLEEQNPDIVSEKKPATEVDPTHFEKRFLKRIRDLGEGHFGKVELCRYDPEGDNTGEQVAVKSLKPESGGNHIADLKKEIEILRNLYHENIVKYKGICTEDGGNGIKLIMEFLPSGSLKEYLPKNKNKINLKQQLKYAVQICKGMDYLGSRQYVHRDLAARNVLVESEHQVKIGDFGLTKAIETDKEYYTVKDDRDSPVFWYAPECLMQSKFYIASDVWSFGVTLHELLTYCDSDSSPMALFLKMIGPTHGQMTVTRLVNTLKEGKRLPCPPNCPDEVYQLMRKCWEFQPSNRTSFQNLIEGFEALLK

Structure (SMILES) | pIC50 [1] | Cmax ([2]; plasma, blood) | AUC(0-t) ([2]; plasma, blood) | MRT ([2]; plasma, blood) | Tmax ([2]; plasma, blood) | Cmax ([2]; colon) | AUC(0-t) ([2]; colon) | AUC(0-inf) ([2]; colon) | half-life ([2]; colon) | MRT ([2]; colon) | Tmax ([2]; colon) | Cmax ([2]; ileum) | AUC(0-t) ([2]; ileum) | AUC(0-inf) ([2]; ileum) | half-life ([2]; ileum) | MRT ([2]; ileum) | Tmax ([2]; ileum) | AUC(0-inf) ([2]; plasma, blood) | half-life ([2]; plasma, blood)
Cc1cc(Nc2nc(N[C@@H]3C[C@H]4CCC[C@@H](C3)N4S(=O)(=O)N3CC(C#N)C3)nc3sccc23)n[nH]1 [Embodiment 238] | 10.52 | 12.7 ng/mL | 19.6 ng·h/mL | 1.47 h | 1 h | 1320 ng/mL | 5270 ng·h/mL | 7380 ng·h/mL | 2.89 h | 4.16 h | 3 h | 21000 ng/mL | 36600 ng·h/mL | 36600 ng·h/mL | 0.58 h | 1.29 h | 1 h |  | 
COc1ccc2c(Nc3cc(C)[nH]n3)nc(N[C@@H]3C[C@H]4CC[C@@H](C3)N4CCC#N)nc2c1 [Embodiment 169, 3-((3-exo)-3-((7-methoxyl-4-((5-methyl-1H-pyrazol-3-yl)amino)quinazolin-2-yl)amino)-8-azabicyclo[3.2.1]oct-8-yl)propionitrile] | 9.20 | 2.21 ng/mL | 3.04 ng·h/mL | 1.08 h | 0.5 h | 9010 ng/mL | 23200 ng·h/mL |  |  | 2.29 h | 5 h | 23300 ng/mL | 68900 ng·h/mL |  |  | 4.64 h | 1 h |  | 
Cc1cc(Nc2nc(N[C@@H]3C[C@H]4CCC[C@@H](C3)N4C(=O)c3ccccn3)nc3sccc23)n[nH]1 [Embodiment 260, ((3-exo)-3-((4-((5-methyl-1H-pyrazol-3-yl)amino)thieno[2,3-d]pyrimidin-2-yl)amino)-9-azabicyclo[3.3.1]non-9-yl)(pyridin-2-yl)methanone] | 9.72 | 24 ng/mL | 27.3 ng·h/mL | 1.37 h | 1 h | 8880 ng/mL | 24400 ng·h/mL |  |  | 3.39 h | 3 h | 9080 ng/mL | 18500 ng·h/mL | 18700 ng·h/mL | 1.01 h | 1.57 h | 1 h | 29.4 ng·h/mL | 1.57 h
Cc1cc(Nc2nc(N[C@@H]3C[C@H]4CC[C@@H](C3)N4CCC#N)nc3sc(C)cc23)n[nH]1 [Embodiment 277, 3-((3-exo)-3-((6-methyl-4-((5-methyl-1H-pyrazol-3-yl)amino)thieno[2,3-d]pyrimidin-2-yl)amino)-8-azabicyclo[3.2.1]oct-8-yl)propionitrile] | 9.21 | 12 ng/mL | 29.1 ng·h/mL | 2.53 h | 2 h | 649 ng/mL | 2890 ng·h/mL |  |  | 3.89 h | 7 h | 18700 ng/mL | 43000 ng·h/mL | 43300 ng·h/mL | 0.92 h | 1.77 h | 1 h | 31.1 ng·h/mL | 0.96 h
Cc1cc(Nc2nc(N[C@@H]3C[C@H]4CC[C@@H](C3)N4CCC#N)nc3ccsc23)n[nH]1 [Embodiment 60, 3-((3-exo)-3-((4-((5-methyl-1H-pyrazol-3-yl)amino)thieno[3,2-d]pyrimidin-2-yl)amino)-8-azabicyclo[3.2.1]oct-8-yl)propionitrile] | 9.92 | 10.3 ng/mL | 31.1 ng·h/mL | 2.58 h | 2 h | 2310 ng/mL | 9130 ng·h/mL |  |  | 3.83 h | 5 h | 26100 ng/mL | 98000 ng·h/mL | 103000 ng·h/mL | 1.26 h | 2.49 h | 1 h | 32.9 ng·h/mL | 1.41 h
Cc1cc(Nc2nc(N(C)[C@@H]3C[C@H]4CCC[C@@H](C3)N4C(=O)CN3CCN(C)CC3)nc3sccc23)n[nH]1 [Embodiment 257, 1-((3-exo)-3-(methyl(4-((5-methyl-1H-pyrazol-3-yl)amino)thieno[2,3-d]pyrimidin-2-yl)amino)-9-azabicyclo[3.3.1]non-9-yl)-2-(4-methylpiperazin-1-yl)ethane-1-one] | 10.15 | 33.9 ng/mL | 64.7 ng·h/mL | 2.18 h | 1 h | 3990 ng/mL | 12300 ng·h/mL |  |  | 4.24 h | 5 h | 25800 ng/mL | 104000 ng·h/mL | 123000 ng·h/mL | 1.98 h | 3.07 h | 3 h | 64.8 ng·h/mL | 1.22 h
Cc1cc(Nc2nc(N[C@@H]3C[C@H]4CCC[C@@H](C3)N4CCC#N)nc3scnc23)n[nH]1 [Embodiment 278, 3-((3-exo)-3-((7-((5-methyl-1H-pyrazol-3-yl)amino)thiazolo[5,4-d]pyrimidin-5-yl)amino)-9-azabicyclo[3.3.1]non-9-yl)propionitrile] | 9.15 | 1.79 ng/mL | 3.62 ng·h/mL | 1.5 h | 0.5 h | 1300 ng/mL | 4640 ng·h/mL |  |  | 4.26 h | 5 h | 3700 ng/mL | 6240 ng·h/mL | 6260 ng·h/mL | 0.95 h | 1.28 h | 1 h |  | 
Cc1cc(Nc2nc(N[C@@H]3C[C@H]4CC[C@@H](C3)N4CCC#N)nc3cc(Br)ccc23)n[nH]1 [Embodiment 170, 3-((3-exo)-3-((7-bromine-4-((5-methyl-1H-pyrazol-3-yl)amino)quinazolin-2-yl)amino)-8-azabicyclo[3.2.1]oct-8-yl)propionitrile] | 9.18 | 16 ng/mL | 36.7 ng·h/mL | 4.13 h | 7 h | 4320 ng/mL | 13000 ng·h/mL |  |  | 3.36 h | 3 h | 49900 ng/mL | 118000 ng·h/mL | 172000 ng·h/mL | 5.48 h | 2.19 h | 1 h |  | 
Cc1cc(Nc2nc(N[C@@H]3C[C@H]4CC[C@@H](C3)N4S(=O)(=O)N3CC(C#N)C3)nc3cc(Cl)ccc23)n[nH]1 [Embodiment 214] | 9.46 | 1.6 ng/mL | 3.59 ng·h/mL | 1.82 h | 3 h | 5590 ng/mL | 19500 ng·h/mL |  |  | 4.4 h | 5 h | 24800 ng/mL | 49300 ng·h/mL | 49500 ng·h/mL | 0.79 h | 1.52 h | 1 h |  | 
